Assay results: ChEMBL document CHEMBL5260828, “Amphiphilic glycoconjugates as potential anti-cancer chemotherapeutics” (Eur J Med Chem, 2018)
Values after ≈ are worked out from the molar mass of the structure shown.

Assays:
CCRF S-180 [1] = assay: Antitumor activity against mouse CCRF S-180 cells implanted in Kunming mouse assessed as inhibition of tumor growth at 2 mg/kg,ip administered for 9 consecutive days; assay type: functional
CCRF S-180 [2] = assay: Antitumor activity against mouse CCRF S-180 cells implanted in Kunming mouse assessed as inhibition of tumor growth at 4 mg/kg,ip administered for 9 consecutive days; assay type: functional
CCRF S-180 [3] = assay: Antitumor activity against mouse CCRF S-180 cells implanted in Kunming mouse assessed as inhibition of tumor growth at 1 mg/kg,ip administered for 9 consecutive days; assay type: functional
ACHN [4] = assay: Cytotoxicity against human ACHN cells assessed as cell viability; assay type: functional
MKN-45 = assay: Cytotoxicity against human MKN-45 cells; assay type: functional, cell-based
HeLa [5] = assay: Cytotoxicity against human HeLa cells; assay type: functional, cell-based
[6] = Cytotoxicity against human HEK293F cells; assay type: toxicity, cell-based
ACHN [7] = assay: Cytotoxicity against human ACHN cells assessed as cell viability at 5 mM in presence of paclitaxel; assay type: functional; conditions: read-out: Activity
ACHN [8] = assay: Cytotoxicity against human ACHN cells; assay type: functional, cell-based
A2780 = assay: Cytotoxicity against human A2780 cells incubated for 48 hrs; assay type: functional, cell-based; conditions: A2780, 48 h
P388 = assay: Cytotoxicity against mouse P388 cells by MTT colorimetric assay; assay type: functional, cell-based
Lung NSCLC-N6 cell-line = assay: Cytotoxicity against human Lung NSCLC-N6 cell-line by MTT colorimetric assay; assay type: functional, cell-based
[9] = Cytotoxicity against rat Highly aggressively proliferating immortalized Microglia cells assessed as inhibition of cell growth incubated for 24 hrs by CTG luminescence assay; assay type: toxicity, cell-based
[10] = Cytotoxicity against mouse BV-2 cells assessed as inhibition of cell growth incubated for 24 hrs by CTG luminescence assay; assay type: toxicity, cell-based
C6 = assay: Antimitotic activity against rat C6 cells assessed as inhibition of cell proliferation by measuring inhibitory dose by [3H]-thymidine incorporation based […]; assay type: functional; conditions: read-out: ID50 (the source's name)
HSC-2 = assay: Cytotoxicity against human HSC-2 cells assessed as inhibition of cell proliferation by MTT colorimetric assay; assay type: functional, cell-based
MDA-MB-231 [11] = assay: Cytotoxicity against human MDA-MB-231 cells assessed as inhibition of cell proliferation by MTT colorimetric assay; assay type: functional, cell-based
Ca9-22 = assay: Cytotoxicity against human Ca9-22 cells assessed as inhibition of cell proliferation by MTT colorimetric assay; assay type: functional, cell-based
A549 = assay: Cytotoxicity against human A549 cells assessed as inhibition of cell proliferation by MTT colorimetric assay; assay type: functional, cell-based
HCT-116 = assay: Antiproliferative activity against human HCT-116 cells assessed as inhibition of cell proliferation; assay type: functional, cell-based
MCF7 [12] = assay: Antiproliferative activity against human MCF7 cells assessed as inhibition of cell proliferation; assay type: functional, cell-based
Jurkat = assay: Cytotoxicity against human Jurkat cells assessed as cell growth inhibition by alamar blue assay; assay type: functional, cell-based
MCF7 [13] = assay: Cytotoxicity against human MCF7 cells assessed as cell growth inhibition by MTT assay; assay type: functional, cell-based
U-937 = assay: Cytotoxicity against human U-937 cells assessed as cell growth inhibition by alamar blue assay; assay type: functional, cell-based
MDA-MB-231 [14] = assay: Cytotoxicity against human MDA-MB-231 cells assessed as cell growth inhibition by alamar blue assay; assay type: functional, cell-based
MCF-10A = assay: Cytotoxicity against human MCF-10A cells assessed as cell growth inhibition by alamar blue assay; assay type: functional, cell-based
[15] = Cytotoxicity against mouse NIH/3T3 cells assessed as cell growth inhibition by alamar blue assay; assay type: toxicity, cell-based, NIH3T3
HeLa [16] = assay: Cytotoxicity against human HeLa cells assessed as cell growth inhibition by alamar blue assay; assay type: functional, cell-based
HL-60 = assay: Antiproliferative activity against human HL-60 cells assessed as cell growth inhibition; assay type: functional, cell-based
COLO 205 = assay: Antiproliferative activity against human COLO 205 cells assessed as cell growth inhibition; assay type: functional, cell-based

Compound: CCCCCCCCCCCCCO[C@@H]1O[C@H](CO[C@@H]2O[C@H](CO)[C@@H](O[C@@H]3O[C@H](CO[C@@H]4O[C@H](CO)[C@@H](O)[C@H](O)[C@H]4O)[C@@H](O)[C@H](O[C@@H]4O[C@H](CO)[C@@H](O)[C@H](O)[C@H]4O)[C@H]3O)[C@H](O)[C@H]2O)[C@@H](O)[C@H](O[C@@H]2O[C@H](CO)[C@@H](O[C@@H]3O[C@H](CO)[C@H](O)[C@H](O)[C@H]3O)[C@H](O)[C@H]2O)[C@H]1O
- inhibition in vivo at 2 mg/kg (CCRF S-180 [1]): 39.9%
- inhibition in vivo at 4 mg/kg (CCRF S-180 [2]): 37.9%
- inhibition in vivo at 1 mg/kg (CCRF S-180 [3]): 39.1%

Compound: CCCCCCCC(=O)O[C@H]1[C@H](OC[C@H](O)[C@H](O)[C@@H](O)[C@@H](O)CO)O[C@H](COC(=O)CCCCC)[C@@H](OC(=O)CCCCC)[C@@H]1OC(=O)CCCCC
- Activity (ACHN [4]): 63.8%
- IC50 (MKN-45): 14.9 µM
- IC50 (HeLa [5]): 16.7 µM
- IC50 [6]: 18.1 µM
- viability at 5000 µM (ACHN [7]): 40.6%
- IC50 (ACHN [8]): 17 µM

Compound: CO[C@@H]1/C=C(\C)C[C@H](/C=C/C#C[C@H]2C[C@@H]2Cl)OC(=O)[C@@H](C)[C@]2(O)C[C@H](O[C@@H]3O[C@@H](C)[C@H](O)[C@@](C)(O)[C@H]3OC)[C@@H](C)[C@@H](O2)[C@@H]1C
- IC50 (A2780): 20.2 µM
- IC50 (P388): 15.3 mg/L (≈ 23.8 µM)
- IC50 (Lung NSCLC-N6 cell-line): 11.3 mg/L (≈ 17.6 µM)

Compound: CCCCCCC[C@@H](CC(=O)N[C@H](CO)CC(C)C)OC(=O)C[C@H](CCCCCCC)OC(=O)C[C@H](CCCCCCC)O[C@@H]1O[C@@H](C)[C@H](O)[C@@H](O)[C@H]1O
- IC50 at 24 h [9]: 22 µM
- IC50 at 24 h [10]: 6.9 µM

Compound: CO[C@@H]1O[C@H](CO)[C@@H](O[C@@H]2O[C@H](CO)[C@H](OS(=O)(=O)O)[C@H](O)[C@H]2O)[C@H](O[C@@H]2O[C@@H](C)[C@@H](O)[C@@H](O)[C@@H]2O)[C@H]1O
- IC50 (C6): 79 µM

Compound: C=CCCCC[C@@H](C)O[C@@H]1O[C@@H](C)[C@H](OC(=O)C[C@H]2C[C@@H]3O[C@]4(C)CC[C@H]5[C@H](C)CC[C@@H]([C@H]2C)[C@@]35OO4)C[C@H]1O
- IC50 (HSC-2): 15.1 µM
- IC50 (MDA-MB-231 [11]): 15.1 µM
- IC50 (Ca9-22): 15.1 µM
- IC50 (A549): 15.1 µM

Compound: CCC/C=C\C[C@@H](O[C@H](/C=C/[C@@H](C/C=C\CCCC(=O)OC)OC[C@H]1O[C@@H](OC[C@H](O)CO)[C@H](O)[C@@H](O)[C@@H]1O)[C@H](O)C/C=C\CCCCC)[C@H](O)/C=C/[C@@H](O)CCCCC(=O)OC
- IC50 (HCT-116): 0.003 µM
- IC50 (MCF7 [12]): 0.003 µM

Compound: C/C=C(\C)C(=O)O[C@@H]1[C@@H](O)[C@H](O[C@H]2[C@H](O[C@H](CCC)CCCCC)O[C@H](C)[C@H](OC(C)=O)[C@@H]2O)O[C@H](COC(=O)CCC(=O)CCC)[C@H]1OC(=O)/C=C/c1ccccc1
- IC50 (Jurkat): 0.0225 µM
- IC50 (MCF7 [13]): 0.0782 µM
- IC50 (U-937): 0.0171 µM
- IC50 (MDA-MB-231 [14]): 0.0188 µM
- IC50 (MCF-10A): 0.0118 µM
- IC50 [15]: 0.0207 µM
- IC50 (HeLa [16]): 0.03 µM

Compound: CN[C@H]1[C@@H](O)C[C@H](O[C@H]2C/C=C(\C)C/C(C)=C/C=C/CC[C@H](C)CNC(=O)/C=C/C=C/[C@@H]2C)O[C@@H]1C [VICENISTATIN]
- IC50 (HL-60): 0.12 mg/L (≈ 0.24 µM)
- IC50 (COLO 205): 0.19 mg/L (≈ 0.379 µM)
